Data from ChEMBL document CHEMBL3046407, “Toxicity of monoterpenes against larvae and adults of Colorado potato beetle, Leptinotarsa decemlineata Say (Coleoptera: Chrysomelidae)” (2007).

How the values were obtained:
[1] = tested on: Leptinotarsa decemlineata; assay type: functional, Instar larval stage
[2] = tested on: Leptinotarsa decemlineata; assay: Insecticidal activity against adult Leptinotarsa decemlineata infested potato leaves assessed as mortality at 1 mg after 24 hr relative to control; assay type: functional
[3] = tested on: Leptinotarsa decemlineata; assay: Insecticidal activity against first-instar larval stage of Leptinotarsa decemlineata infested potato leaves assessed as mortality at 0.5 mg after 96 hr relative to control; assay type: functional
[4] = tested on: Leptinotarsa decemlineata; assay: Insecticidal activity against first-instar larval stage of Leptinotarsa decemlineata infested potato leaves assessed as mortality at 0.5 mg after 12 hr relative to control; assay type: functional
[5] = tested on: Leptinotarsa decemlineata; assay type: functional, Instar larval stage; remark: listed apart in the source
[6] = tested on: Leptinotarsa decemlineata; assay: Insecticidal activity against adult Leptinotarsa decemlineata infested potato leaves assessed as mortality at 0.5 mg after 12 hr relative to control; assay type: functional
[7] = tested on: Leptinotarsa decemlineata; assay: Insecticidal activity against adult Leptinotarsa decemlineata infested potato leaves assessed as mortality at 1 mg after 96 hr relative to control; assay type: functional
[8] = tested on: Leptinotarsa decemlineata; assay: Insecticidal activity against first-instar larval stage of Leptinotarsa decemlineata infested potato leaves assessed as mortality at 1 mg after 48 hr relative to control; assay type: functional
[9] = tested on: Leptinotarsa decemlineata; assay: Insecticidal activity against first-instar larval stage of Leptinotarsa decemlineata infested potato leaves assessed as mortality at 0.5 mg after 48 hr relative to control; assay type: functional
[10] = tested on: Leptinotarsa decemlineata; assay: Insecticidal activity against adult Leptinotarsa decemlineata infested potato leaves assessed as mortality at 1 mg after 12 hr relative to control; assay type: functional
[11] = tested on: Leptinotarsa decemlineata; assay type: functional, Instar larval stage; remark: listed apart in the source
[12] = tested on: Leptinotarsa decemlineata; assay type: functional, Instar larval stage; remark: listed apart in the source
[13] = tested on: Leptinotarsa decemlineata; assay: Insecticidal activity against third-instar larval stage of Leptinotarsa decemlineata infested potato leaves assessed as mortality at 1 mg after 12 hr relative to control; assay type: functional
[14] = tested on: Leptinotarsa decemlineata; assay: Insecticidal activity against adult Leptinotarsa decemlineata infested potato leaves assessed as mortality at 0.5 mg after 48 hr relative to control; assay type: functional
[15] = tested on: Leptinotarsa decemlineata; assay: Insecticidal activity against first-instar larval stage of Leptinotarsa decemlineata infested potato leaves assessed as mortality at 1 mg after 96 hr relative to control; assay type: functional
[16] = tested on: Leptinotarsa decemlineata; assay: Insecticidal activity against third-instar larval stage of Leptinotarsa decemlineata infested potato leaves assessed as mortality at 0.5 mg after 24 hr relative to control; assay type: functional
[17] = tested on: Leptinotarsa decemlineata; assay type: functional, Instar larval stage; remark: listed apart in the source
[18] = tested on: Leptinotarsa decemlineata; assay type: functional, Instar larval stage; remark: listed apart in the source
[19] = tested on: Leptinotarsa decemlineata; assay: Insecticidal activity against first-instar larval stage of Leptinotarsa decemlineata infested potato leaves assessed as mortality at 0.5 mg after 24 hr relative to control; assay type: functional
[20] = tested on: Leptinotarsa decemlineata; assay: Insecticidal activity against third-instar larval stage of Leptinotarsa decemlineata infested potato leaves assessed as mortality at 1 mg after 24 hr relative to control; assay type: functional
[21] = tested on: Leptinotarsa decemlineata; assay: Insecticidal activity against first-instar larval stage of Leptinotarsa decemlineata infested potato leaves assessed as mortality at 1 mg after 24 hr relative to control; assay type: functional
[22] = tested on: Leptinotarsa decemlineata; assay: Insecticidal activity against adult Leptinotarsa decemlineata infested potato leaves assessed as mortality at 0.5 mg after 96 hr relative to control; assay type: functional
[23] = tested on: Leptinotarsa decemlineata; assay: Insecticidal activity against adult Leptinotarsa decemlineata infested potato leaves assessed as mortality at 0.5 mg after 24 hr relative to control; assay type: functional
[24] = tested on: Leptinotarsa decemlineata; assay type: functional, Instar larval stage; remark: listed apart in the source
[25] = tested on: Leptinotarsa decemlineata; assay: Insecticidal activity against third-instar larval stage of Leptinotarsa decemlineata infested potato leaves assessed as mortality at 0.5 mg after 12 hr relative to control; assay type: functional
[26] = tested on: Leptinotarsa decemlineata; assay type: functional, Instar larval stage; remark: listed apart in the source
[27] = tested on: Leptinotarsa decemlineata; assay type: functional, Instar larval stage; remark: listed apart in the source
[28] = tested on: Leptinotarsa decemlineata; assay type: functional, Instar larval stage; remark: listed apart in the source
[29] = tested on: Leptinotarsa decemlineata; assay: Insecticidal activity against adult Leptinotarsa decemlineata infested potato leaves assessed as mortality at 1 mg after 48 hr relative to control; assay type: functional
[30] = tested on: Leptinotarsa decemlineata; assay: Insecticidal activity against first-instar larval stage of Leptinotarsa decemlineata infested potato leaves assessed as mortality at 1 mg after 12 hr relative to control; assay type: functional
[31] = tested on: Leptinotarsa decemlineata; assay: Insecticidal activity against second-instar larval stage of Leptinotarsa decemlineata infested potato leaves assessed as mortality at 0.5 mg after 12 hr relative to control; assay type: functional
[32] = tested on: Leptinotarsa decemlineata; assay: Insecticidal activity against second-instar larval stage of Leptinotarsa decemlineata infested potato leaves assessed as mortality at 1 mg after 12 hr relative to control; assay type: functional
[33] = tested on: Leptinotarsa decemlineata; assay: Insecticidal activity against first-instar larval stage of Leptinotarsa decemlineata infested potato leaves assessed as mortality at 10 ul after 48 hr relative to control; assay type: functional
[34] = tested on: Leptinotarsa decemlineata; assay: Insecticidal activity against adult Leptinotarsa decemlineata infested potato leaves assessed as mortality at 10 ul after 12 hr relative to control; assay type: functional
[35] = tested on: Leptinotarsa decemlineata; assay: Insecticidal activity against third-instar larval stage of Leptinotarsa decemlineata infested potato leaves assessed as mortality at 20 ul after 24 hr relative to control; assay type: functional
[36] = tested on: Leptinotarsa decemlineata; assay: Insecticidal activity against first-instar larval stage of Leptinotarsa decemlineata infested potato leaves assessed as mortality at 20 ul after 12 hr relative to control; assay type: functional
[37] = tested on: Leptinotarsa decemlineata; assay: Insecticidal activity against second-instar larval stage of Leptinotarsa decemlineata infested potato leaves assessed as mortality at 20 ul after 48 hr (reference value: 3.3 +/- 3.3%); assay type: functional
[38] = tested on: Leptinotarsa decemlineata; assay: Insecticidal activity against second-instar larval stage of Leptinotarsa decemlineata infested potato leaves assessed as mortality at 10 ul after 12 hr relative to control; assay type: functional
[39] = tested on: Leptinotarsa decemlineata; assay: Insecticidal activity against first-instar larval stage of Leptinotarsa decemlineata infested potato leaves assessed as mortality at 10 ul after 12 hr relative to control; assay type: functional
[40] = tested on: Leptinotarsa decemlineata; assay: Insecticidal activity against second-instar larval stage of Leptinotarsa decemlineata infested potato leaves assessed as mortality at 10 ul after 48 hr (reference value: 3.3 +/- 3.3%); assay type: functional
[41] = tested on: Leptinotarsa decemlineata; assay: Insecticidal activity against first-instar larval stage of Leptinotarsa decemlineata infested potato leaves assessed as mortality at 10 ul after 24 hr relative to control; assay type: functional
[42] = tested on: Leptinotarsa decemlineata; assay: Insecticidal activity against third-instar larval stage of Leptinotarsa decemlineata infested potato leaves assessed as mortality at 10 ul after 24 hr relative to control; assay type: functional
[43] = tested on: Leptinotarsa decemlineata; assay: Insecticidal activity against second-instar larval stage of Leptinotarsa decemlineata infested potato leaves assessed as mortality at 20 ul after 12 hr relative to control; assay type: functional
[44] = tested on: Leptinotarsa decemlineata; assay: Insecticidal activity against third-instar larval stage of Leptinotarsa decemlineata infested potato leaves assessed as mortality at 20 ul after 96 hr (reference value: 3.3 +/- 3.3%); assay type: functional
[45] = tested on: Leptinotarsa decemlineata; assay: Insecticidal activity against adult Leptinotarsa decemlineata infested potato leaves assessed as mortality at 20 ul after 48 hr relative to control; assay type: functional
[46] = tested on: Leptinotarsa decemlineata; assay: Insecticidal activity against adult Leptinotarsa decemlineata infested potato leaves assessed as mortality at 10 ul after 48 hr relative to control; assay type: functional
[47] = tested on: Leptinotarsa decemlineata; assay: Insecticidal activity against adult Leptinotarsa decemlineata infested potato leaves assessed as mortality at 20 ul after 96 hr relative to control; assay type: functional
[48] = tested on: Leptinotarsa decemlineata; assay: Insecticidal activity against adult Leptinotarsa decemlineata infested potato leaves assessed as mortality at 10 ul after 24 hr relative to control; assay type: functional
[49] = tested on: Leptinotarsa decemlineata; assay: Insecticidal activity against first-instar larval stage of Leptinotarsa decemlineata infested potato leaves assessed as mortality at 20 ul after 48 hr relative to control; assay type: functional
[50] = tested on: Leptinotarsa decemlineata; assay: Insecticidal activity against third-instar larval stage of Leptinotarsa decemlineata infested potato leaves assessed as mortality at 20 ul after 12 hr relative to control; assay type: functional
[51] = tested on: Leptinotarsa decemlineata; assay: Insecticidal activity against adult Leptinotarsa decemlineata infested potato leaves assessed as mortality at 20 ul after 24 hr relative to control; assay type: functional
[52] = tested on: Leptinotarsa decemlineata; assay: Insecticidal activity against third-instar larval stage of Leptinotarsa decemlineata infested potato leaves assessed as mortality at 10 ul after 96 hr (reference value: 3.3 +/- 3.3%); assay type: functional
[53] = tested on: Leptinotarsa decemlineata; assay: Insecticidal activity against second-instar larval stage of Leptinotarsa decemlineata infested potato leaves assessed as mortality at 20 ul after 96 hr (reference value: 3.3 +/- 3.3%); assay type: functional
[54] = tested on: Leptinotarsa decemlineata; assay: Insecticidal activity against first-instar larval stage of Leptinotarsa decemlineata infested potato leaves assessed as mortality at 10 ul after 96 hr relative to control; assay type: functional
Sitophilus granarius = assay: Insecticidal activity against Sitophilus granarius (granary weevil) assessed as mortality; assay type: functional
[55] = tested on: Leptinotarsa decemlineata; assay: Insecticidal activity against first-instar larval stage of Leptinotarsa decemlineata infested potato leaves assessed as mortality at 20 ul after 96 hr relative to control; assay type: functional
[56] = tested on: Leptinotarsa decemlineata; assay: Insecticidal activity against second-instar larval stage of Leptinotarsa decemlineata infested potato leaves assessed as mortality at 10 ul after 96 hr (reference value: 3.3 +/- 3.3%); assay type: functional
[57] = tested on: Leptinotarsa decemlineata; assay: Insecticidal activity against third-instar larval stage of Leptinotarsa decemlineata infested potato leaves assessed as mortality at 20 ul after 48 hr (reference value: 3.3 +/- 3.3%); assay type: functional
[58] = tested on: Leptinotarsa decemlineata; assay: Insecticidal activity against first-instar larval stage of Leptinotarsa decemlineata infested potato leaves assessed as mortality at 20 ul after 24 hr relative to control; assay type: functional
[59] = tested on: Leptinotarsa decemlineata; assay: Insecticidal activity against second-instar larval stage of Leptinotarsa decemlineata infested potato leaves assessed as mortality at 10 ul after 24 hr (reference value: 3.3 +/- 3.3%); assay type: functional
[60] = tested on: Leptinotarsa decemlineata; assay: Insecticidal activity against adult Leptinotarsa decemlineata infested potato leaves assessed as mortality at 10 ul after 96 hr relative to control; assay type: functional
[61] = tested on: Leptinotarsa decemlineata; assay: Insecticidal activity against second-instar larval stage of Leptinotarsa decemlineata infested potato leaves assessed as mortality at 20 ul after 24 hr (reference value: 3.3 +/- 3.3%); assay type: functional
[62] = tested on: Leptinotarsa decemlineata; assay: Insecticidal activity against third-instar larval stage of Leptinotarsa decemlineata infested potato leaves assessed as mortality at 10 ul after 12 hr relative to control; assay type: functional
[63] = tested on: Leptinotarsa decemlineata; assay: Insecticidal activity against third-instar larval stage of Leptinotarsa decemlineata infested potato leaves assessed as mortality at 10 ul after 48 hr (reference value: 3.3 +/- 3.3%); assay type: functional
[64] = tested on: Leptinotarsa decemlineata; assay: Insecticidal activity against adult Leptinotarsa decemlineata infested potato leaves assessed as mortality at 20 ul after 12 hr relative to control; assay type: functional

CC1(C)[C@H](/C=C(\Cl)C(F)(F)F)[C@@H]1C(=O)O[C@@H](C#N)c1cccc(Oc2ccccc2)c1 (relative stereo) [REL-LAMBDA CYHALOTHRIN]
mortality [1]: 100%
mortality [2]: 100%
mortality [3]: 100%
mortality [4]: 63.3%
mortality [5]: 93.3%
mortality [6]: 100%
mortality [7]: 100%
mortality [8]: 100%
mortality [9]: 100%
mortality [10]: 90%
mortality [11]: 100%
mortality [12]: 100%
mortality [13]: 86.7%
mortality [14]: 100%
mortality [15]: 100%
mortality [16]: 86.7%
mortality [17]: 93.3%
mortality [18]: 100%
mortality [19]: 93.3%
mortality [20]: 90%
mortality [21]: 90%
mortality [22]: 100%
mortality [23]: 100%
mortality [24]: 86.7%
mortality [25]: 73.3%
mortality [26]: 100%
mortality [27]: 100%
mortality [28]: 100%
mortality [29]: 100%
mortality [30]: 60%
mortality [31]: 73.3%
mortality [32]: 80%

CC12CCC(CC1)C(C)(C)O2 [EUCALYPTOL]
mortality [33]: 83.3%
mortality [34]: 100%
mortality [35]: 73.3%
mortality [36]: 46.7%
mortality [37]: 100%
mortality [38]: 43.3%
mortality [39]: 26.7%
mortality [40]: 100%
mortality [41]: 66.7%
mortality [42]: 50%
mortality [43]: 83.3%
mortality [44]: 86.7%
mortality [45]: 100%
mortality [46]: 100%
mortality [47]: 100%
mortality [48]: 100%
mortality [49]: 100%
mortality [50]: 56.7%
mortality [51]: 100%
mortality [52]: 76.7%
mortality [53]: 100%
mortality [54]: 100%
mortality (Sitophilus granarius): 90%
mortality [55]: 100%
mortality [56]: 100%
mortality [57]: 80%
mortality [58]: 100%
mortality [59]: 100%
mortality [60]: 100%
mortality [61]: 100%
mortality [62]: 40%
mortality [63]: 63.3%
mortality [64]: 83.3%
